Consider nine compounds from ChEMBL document CHEMBL1159200, “A new flavonol glycoside gallate ester from Acer okamotoanum and its inhibitory activity against human immunodeficiency virus-1 (HIV-1) integrase” (J Nat Prod, 1998).

The experiment addresses Human immunodeficiency virus type 1 integrase (Human immunodeficiency virus 1, UniProt Q7ZJM1). The experiment can be described thus: Inhibition of HIV1 recombinant integrase expressed in Escherichia coli.

Chain of Human immunodeficiency virus type 1 integrase (Q7ZJM1 whole entry): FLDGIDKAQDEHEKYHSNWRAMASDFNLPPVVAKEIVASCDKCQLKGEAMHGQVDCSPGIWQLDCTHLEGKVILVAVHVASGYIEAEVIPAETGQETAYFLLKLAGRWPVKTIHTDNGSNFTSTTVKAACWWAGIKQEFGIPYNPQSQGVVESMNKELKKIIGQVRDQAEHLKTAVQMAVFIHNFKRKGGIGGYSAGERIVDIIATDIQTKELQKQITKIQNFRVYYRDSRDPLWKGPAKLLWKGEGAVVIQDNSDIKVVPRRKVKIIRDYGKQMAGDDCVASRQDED

The IC50 is the concentration at which inhibition is half-maximal. As to `O=C(OC[C@H]1O[C@@H](Oc2c(-c3ccc(O)c(O)c3)oc3cc(O)cc(O)c3c2=O)[C@H](OC(=O)c2cc(O)c(O)c(O)c2)[C@@H](O)[C@H]1O)c1cc(O)c(O)c(O)c1`, the IC50 was 31.5 µM.
`O=C(OC[C@H]1O[C@@H](OC(=O)c2cc(O)c(O)c(O)c2)[C@H](OC(=O)c2cc(O)c(O)c(O)c2)[C@@H](O)[C@@H]1O)c1cc(O)c(O)c(O)c1`: the IC50 is 44.5 µM.
`O=C(O[C@H]1[C@H](Oc2c(-c3ccc(O)c(O)c3)oc3cc(O)cc(O)c3c2=O)OC[C@H](O)[C@@H]1O)c1cc(O)c(O)c(O)c1`: the IC50 is 30.9 µM.
Next, `O=C(O[C@H]1[C@H](Oc2c(-c3ccc(O)c(O)c3)oc3cc(O)cc(O)c3c2=O)O[C@H](CO)[C@H](O)[C@@H]1O)c1cc(O)c(O)c(O)c1`: 45.3 µM; `O=c1c(O[C@@H]2OC[C@H](O)[C@H](O)[C@H]2O)c(-c2ccc(O)cc2)oc2cc(O)cc(O)c12`: > 239 µM.
Regarding `COC(=O)c1cc(O)c(O)c(O)c1` [GALLIC ACID METHYL ESTER], the concentration for half-maximal inhibition (IC50) was 155 µM.
As to `O=c1c(O[C@@H]2O[C@H](CO)[C@H](O)[C@H](O)[C@H]2O)c(-c2ccc(O)c(O)c2)oc2cc(O)cc(O)c12` [HYPEROSIDE], the IC50 is 139 µM.
Consider `O=C(OC[C@H]1O[C@@H](OC(=O)c2cc(O)c(O)c(O)c2)[C@H](OC(=O)c2cc(O)c(O)c(O)c2)[C@@H](OC(=O)c2cc(O)c(O)c(O)c2)[C@@H]1OC(=O)c1cc(O)c(O)c(O)c1)c1cc(O)c(O)c(O)c1` [PENTAGALLOYL GLUCOSE], for which the IC50 is 29.8 µM.
In the case of `C[C@@H]1O[C@@H](Oc2c(-c3ccc(O)c(O)c3)oc3cc(O)cc(O)c3c2=O)[C@H](O)[C@H](O)[C@H]1O` [QUERCITRIN], the IC50 was 168 µM.
